Assay results published in US8158621B2, “Methods of treating or preventing autoimmune diseases with 2,4-pyrimidinediamine compounds” (Rigel Pharmaceuticals, Inc., priority 2002, dated 2012).

Test system: Human Jurkat T-cells (clone N)
Test: Jurkat T-cell activation (anti-TCR, CD69 upregulation)
Assay type: cell-based
Conditions: not given
In short: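 Jurkat cells in RPMI + 5% FBS preincubated with compound 1 h at 37 °C, then stimulated with anti-TCR C305 at 500 ng/ml for 20 h. CD69 surface expression stained with anti-CD69-APC and read by flow cytometry; IC50 versus solvent-only control.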

| IC50 [µM] | Structure (SMILES) |
| --- | --- |
| 1.73 | CNC(=O)Cn1ncc2cc(Nc3ncc(F)c(Nc4ccc(OC(C)C)cc4)n3)ccc21 [Compound R935239] |
| 9.91 | Fc1cnc(Nc2ccc(N3CCOCC3)cc2)nc1Nc1ccc(N2CCOCC2)cc1 [Compound R926114] |
| > 10 | COC(=O)c1cc(Nc2nc(Nc3ccc4c(c3)OCCO4)ncc2F)cn1C [Compound R935166] |
| 11.8 | CNC(=O)COc1cccc(Nc2ncc(F)c(Nc3cc(OC)cc(C(F)(F)F)c3)n2)c1 [Compound R926833] |
| > 10 | COC(=O)COc1ccc(Nc2ncc(F)c(Nc3ccc(OCC(N)=O)cc3)n2)cc1 [Compound R945052] |
| > 10 | C[C@H](Nc1ncc(F)c(N[C@@H](C)[C@H](O)c2ccccc2)n1)[C@H](O)c1ccccc1 [Compound R925767] |
| > 10 | Cc1noc(COc2ccc(Nc3ncc(F)c(Nc4cccc(O)c4)n3)cc2)n1 [Compound R935141] |
| 0.878 | CC(=NO)c1cccc(Nc2ncc(F)c(Nc3cccc(C(C)=NO)c3)n2)c1 [Compound R950379] |
| > 10 | CNCCNC(=O)c1cc2cc(Nc3ncc(F)c(Nc4ccc5oc(C(=O)NCCNC)cc5c4)n3)ccc2o1 [Compound R950170] |
| 9.67 | Cc1noc(COc2ccc(Nc3ncc(F)c(Nc4ccc(OC(C)C)cc4)n3)cc2)n1 [Compound R935142] |
| 2.47 | Fc1cnc(Nc2ccc(OCCN3CCOCC3)cc2)nc1Nc1ccc2c(c1)OCCO2 [Compound R926709] |
| > 10 | COC(=O)COc1ccc(Nc2ncc(F)c(Nc3ccc(OCC(=O)OC)cc3)n2)cc1 [Compound R926240] |
| > 10 | COc1cc(C(=O)NS(=O)(=O)c2ccccc2C)ccc1Cn1ncc2cc(Nc3ncc(F)c(Nc4ccc5c(c4)OCCO5)n3)ccc21 [Compound R935339] |
| > 10 | CNC(=O)C(C)(C)Oc1cccc(Nc2ncc(F)c(Nc3ccc4c(c3)OCCO4)n2)c1 [Compound R926915] |
| 2.01 | O=C(CNc1cccc(Nc2ncc(F)c(Nc3cccc(O)c3)n2)c1)N1CCNCC1 [Compound R950222] |
| > 10 | CC(C)Oc1ccc(Nc2nc(Nc3cccc(OCC(=O)O)c3)ncc2F)cc1 [Compound R926731] |
| > 10 | CSc1nc(Nc2cccc(O)c2)nc(Nc2cccc(O)c2)c1Cl [Compound R926595] |
| 5.43 | Cc1nc(COc2cccc(Nc3nc(Nc4ccc5c(c4)OCCO5)ncc3F)c2)no1 [Compound R945137] |
| 2.74 | CNC(=O)COc1cc(Nc2ncc(F)c(Nc3cccc(O)c3)n2)ccc1C [Compound R926757] |
| 4.24 | CN(CCO)C(=O)COc1cccc(Nc2ncc(F)c(Nc3ccc4c(c3)OCCO4)n2)c1 [Compound R926766] |
| > 10 | CC(C)Oc1cccc(Nc2nc(Nc3ccc4oc(C(=O)N5CCOCC5)cc4c3)ncc2F)c1 [Compound R926489] |
| 2.88 | COC(=O)Cn1ncc2ccc(Nc3ncc(F)c(Nc4ccc5c(c4)OCCO5)n3)cc21 [Compound R935208] |
| 2.91 | Oc1cccc(Nc2ncc(F)c(Nc3ccc4[nH]ncc4c3)n2)c1 [Compound R935268] |
| 3.28 | CNCc1cccc(Nc2nc(Nc3cccc(OCC(=O)NC)c3)ncc2F)c1 [Compound R940317] |

| IC50 [µM] | Structure (SMILES) |
| --- | --- |
| 6.26 | OCCn1ncc2cc(Nc3nc(Nc4ccc5c(c4)OCCO5)ncc3F)ccc21 [Compound R935258] |
| 2.53 | CNC(=O)COc1cccc(Nc2ncc(F)c(Nc3cccc(C(C)(C)C)c3)n2)c1 [Compound R940276] |
| 1.91 | CNC(=O)COc1cccc(Nc2ncc(F)c(Nc3cccc(N)c3)n2)c1 [Compound R950263] |
| 2.16 | Fc1cnc(Nc2ccc3c(c2)OCCO3)nc1Nc1ccc(OCc2nc(-c3ccccc3)no2)cc1 [Compound R935140] |
| > 10 | COC(=O)COc1ccc(Nc2ncc(C)c(Nc3ccc(OCC(=O)OC)cc3)n2)cc1 [Compound R926258] |
| 1.72 | O=C(COc1cccc(Nc2ncc(F)c(Nc3ccc4c(c3)OCCO4)n2)c1)NC1CC1 [Compound R926848] |
| 1.36 | CNC(=O)COc1cccc(Nc2ncc(F)c(Nc3ccc4cc(C(=O)OC)[nH]c4c3)n2)c1 [Compound R926904] |
| 7.58 | COC(=O)COc1cccc(Nc2ncc(F)c(Nc3ccc4[nH]ncc4c3)n2)c1 [Compound R935269] |
| 19.8 | FC(F)(F)c1cnc(Nc2ccc3c(c2)OCCO3)nc1Nc1ccc2c(c1)OCCO2 [Compound R920669] |
| 2.8 | CON=C(N)COc1ccc(Nc2ncc(F)c(Nc3ccc(OCC(N)=NOC)cc3)n2)cc1 [Compound R945096] |
| 7.96 | COC(=O)Cn1ncc2ccc(Nc3ncc(F)c(Nc4cccc(O)c4)n3)cc21 [Compound R935215] |
| 5.19 | O=C(CNc1cccc(Nc2ncc(F)c(Nc3cccc(NCCO)c3)n2)c1)N1CCNCC1 [Compound R950241] |
| > 10 | CCOC(=O)CNc1nc(Nc2ccc(OCC(=O)OCC)cc2)nc(C(=O)OCC)c1[N+](=O)[O-] [Compound R925858] |
| > 10 | Cc1noc(COc2cccc(Nc3nc(Nc4cccc(O)c4)ncc3F)c2)n1 [Compound R945130] |
| > 10 | COC(=O)COc1ccc(Nc2nc(Nc3ccc(OCC#N)cc3)ncc2F)cc1 [Compound R945062] |
| 2.55 | CNC(=O)COc1cccc(Nc2ncc(F)c(Nc3ccc(OC(F)(F)F)cc3)n2)c1 [Compound R926879] |
| > 10 | COC(=O)c1cc2cc(Nc3ncc(F)c(Nc4ccc5c(c4)C(=O)OC5)n3)ccc2o1 [Compound R940294] |
| 1.39 | COc1ccc(Nc2nc(Nc3cc(C)c(O)c(Cl)c3)ncc2F)cc1CN1CCNCC1 [Compound R940318] |
| 22 | CNc1ncc(F)c(Nc2ccc3c(c2)OCCO3)n1 [Compound R950189] |
| > 10 | COC(=O)Cn1ncc2cc(Nc3ncc(F)c(Nc4cccc(O)c4)n3)ccc21 [Compound R935237] |
| 1.83 | CNC(=O)CCn1ncc2cc(Nc3ncc(F)c(Nc4cccc(O)c4)n3)ccc21 [Compound R935305] |
| 1.51 | Cc1cc(Nc2nc(Nc3cccc(OCCN4CCOCC4)c3)ncc2F)cc(C)c1O [Compound R940255] |
| 1.95 | CCOC1CCOc2ccc(Nc3nc(Nc4cccc(OCC(=O)NC)c4)ncc3F)cc21 (stereo not drawn) [Compound R950296] |
| 20.2 | Cc1nc(COc2cccc(Nc3nc(Nc4cccc(O)c4)ncc3F)c2)no1 [Compound R945132] |

| Structure (SMILES) | IC50 [µM] |
| --- | --- |
| CNC(=O)COc1cccc(Nc2ncc(F)c(Nc3ccc4c(c3)NCCO4)n2)c1 [Compound R920395] | 0.726 |

Same assay, conditions: Homo sapiens

| Structure (SMILES) | IC50 [µM] |
| --- | --- |
| O=[N+]([O-])c1cc(Nc2ccnc(Nc3ccc(Cl)c([N+](=O)[O-])c3)n2)ccc1Cl [Compound R950154] | > 10 |
| Nc1cc(Nc2ncc(F)c(Nc3ccc([N+](=O)[O-])c(N)c3)n2)ccc1[N+](=O)[O-] [Compound R950135] | > 10 |

Same assay, conditions: Homo sapiens, Jurkat

| IC50 [µM] | Structure (SMILES) |
| --- | --- |
| > 10 | Fc1cnc(Nc2cccc(-c3nnn[nH]3)c2)nc1Nc1ccc2c(c1)OCCO2 [Compound R926843] |
| 2.68 | OCc1cc2cc(Nc3ncc(F)c(Nc4cccc(O)c4)n3)ccc2o1 [Compound R926707] |
| 1.91 | CCOC(=O)c1cc2cc(Nc3ncc(F)c(Nc4ccc5[nH]c(C(=O)OCC)cc5c4)n3)ccc2[nH]1 [Compound R926616] |
| 18.2 | CC(C)Oc1cccc(Nc2ncc(F)c(Nc3cccc(N)c3)n2)c1 [Compound R950164] |
| > 10 | CC(Nc1nc(Nc2cccc(O)c2)ncc1Br)c1ccc(F)cc1 (racemic) [Compound R935023] |
| 7.5 | N#Cc1cnc(Nc2cccc(O)c2)nc1Nc1cccc(O)c1 [Compound R925774] |
| 16.9 | Oc1cccc(Nc2ncc(-c3ccc4c(c3)OCO4)c(Nc3cccc(O)c3)n2)c1 [Compound R925788] |
| > 10 | CCOC(=O)c1cccc(Nc2ncc(F)c(Nc3ccc4c(c3)OCCO4)n2)c1 [Compound R925745] |
| > 10 | Fc1cnc(Nc2ccccc2-c2ccccc2)nc1Nc1ccccc1-c1ccccc1 [Compound R926398] |
| > 10 | CC(=O)Nc1cccc(OCCCNc2ncc(F)c(Nc3ccc4c(c3)OCCO4)n2)c1 [Compound R926787] |
| > 10 | Cc1cnc(Nc2ccccc2-c2ccccc2)nc1Nc1ccccc1-c1ccccc1 [Compound R926404] |
| > 10 | COc1cc(Nc2ncc(F)c(Nc3cccc(O)c3)n2)c(OC)cc1Cl [Compound R926857] |
| > 10 | CCOC(=O)CNc1nc(NCC(=O)OCC)c(N)c(C(=O)OCC)n1 [Compound R925865] |
| > 10 | Nc1nc(N(CC(O)c2ccccc2)c2ccc3c(c2)OCCO3)ncc1F (stereo not drawn) [Compound R925765] |
| 0.703 | COc1cc(Nc2ncc(F)c(Nc3ccc4c(c3)OCCO4)n2)cc(OC)c1OC [Compound R926762] |
| 3.75 | Fc1cnc(NCCCN2CCN(Cc3c(F)cccc3Cl)CC2)nc1Nc1ccc2c(c1)OCCO2 [Compound R926717] |
| 11.8 | CCOC(=O)C1CCN(C(=O)c2cccc(Nc3ncc(F)c(Nc4ccc5cc[nH]c5c4)n3)c2)CC1 [Compound R926935] |
| 21.4 | Nc1ccc(F)c(Nc2ncc(F)c(Nc3cc(N)ccc3F)n2)c1 [Compound R950158] |
| > 10 | OCCOc1ccc(Nc2ncc(F)c(Nc3cccc(O)c3)n2)cc1 [Compound R926376] |
| 17.7 | Oc1cccc(Nc2ncc(F)c(Nc3ccc(Cl)nc3)n2)c1 [Compound R927018] |
| 12.1 | CC(C)(C)OC(=O)Nc1ccc(Nc2ncc(F)c(Nc3ccc(NC(=O)OC(C)(C)C)cc3)n2)cc1 [Compound R950120] |
| > 10 | CC(C)(C)c1ccc(Nc2ncc(F)c(Nc3ccc(C(C)(C)C)cc3)n2)cc1 [Compound R926222] |
| > 10 | Fc1cnc(Nc2cccc(OC(F)(F)F)c2)nc1Nc1cccc(OC(F)(F)F)c1 [Compound R926038] |
| 4.7 | Nc1cc(Cl)cc(Nc2ccnc(Nc3cc(N)cc(Cl)c3)n2)c1 [Compound R950133] |
| > 10 | Oc1cccc(Nc2cc(Cl)nc(Nc3cccc(O)c3)n2)c1 [Compound R926408] |
| 3.12 | c1coc(-c2cnc(Nc3ccc4c(c3)OCCO4)nc2Nc2ccc3c(c2)OCCO3)c1 [Compound R925785] |
| > 10 | Oc1cccc(Nc2nc(NCc3ccc4c(c3)OCCO4)ncc2F)c1 [Compound R945168] |
